Measured values: ChEMBL document CHEMBL1132638, “New (sulfonyloxy)piperazinyldibenzazepines as potential atypical antipsychotics: chemistry and pharmacological evaluation” (J Med Chem, 1999)

What was measured:
[1] = Partition coefficient (logP); format: physicochemical; conditions: octanol/water
[2] = target: T1, Adrenergic receptor alpha-1 (Rattus norvegicus, UniProt P15823+P23944+P43140); assay: Binding affinity towards alpha-1 adrenergic receptor from rat brain membranes using [3H]prazosin as radioligand
T1 sequence (P15823 whole entry): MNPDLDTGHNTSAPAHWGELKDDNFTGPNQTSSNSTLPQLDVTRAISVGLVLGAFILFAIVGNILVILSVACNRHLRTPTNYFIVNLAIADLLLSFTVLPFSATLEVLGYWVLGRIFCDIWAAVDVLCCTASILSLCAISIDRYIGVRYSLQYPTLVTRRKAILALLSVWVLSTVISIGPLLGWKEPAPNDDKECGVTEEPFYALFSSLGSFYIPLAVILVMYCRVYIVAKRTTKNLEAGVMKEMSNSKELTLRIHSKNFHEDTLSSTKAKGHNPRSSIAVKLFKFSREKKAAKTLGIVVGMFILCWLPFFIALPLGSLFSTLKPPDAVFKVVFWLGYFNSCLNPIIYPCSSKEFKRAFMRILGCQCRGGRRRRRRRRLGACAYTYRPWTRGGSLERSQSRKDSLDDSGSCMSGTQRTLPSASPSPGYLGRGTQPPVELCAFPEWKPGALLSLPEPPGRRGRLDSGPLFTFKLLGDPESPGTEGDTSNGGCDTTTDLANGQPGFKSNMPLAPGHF
T1 sequence (P23944 whole entry): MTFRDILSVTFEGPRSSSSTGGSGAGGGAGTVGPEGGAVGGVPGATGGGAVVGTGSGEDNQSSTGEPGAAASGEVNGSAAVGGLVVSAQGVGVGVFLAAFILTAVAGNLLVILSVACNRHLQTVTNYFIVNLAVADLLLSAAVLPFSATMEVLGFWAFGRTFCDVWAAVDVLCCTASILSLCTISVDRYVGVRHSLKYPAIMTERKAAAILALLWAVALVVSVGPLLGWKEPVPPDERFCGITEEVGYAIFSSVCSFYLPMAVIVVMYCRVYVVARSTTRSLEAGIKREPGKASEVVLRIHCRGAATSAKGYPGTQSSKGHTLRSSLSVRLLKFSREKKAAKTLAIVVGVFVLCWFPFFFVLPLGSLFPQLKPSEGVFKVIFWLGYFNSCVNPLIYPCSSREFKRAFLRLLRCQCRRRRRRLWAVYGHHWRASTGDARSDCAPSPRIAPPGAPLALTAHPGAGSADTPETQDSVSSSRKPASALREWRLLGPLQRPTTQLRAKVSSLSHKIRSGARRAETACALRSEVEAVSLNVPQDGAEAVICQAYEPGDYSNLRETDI
T1 sequence (P43140 whole entry): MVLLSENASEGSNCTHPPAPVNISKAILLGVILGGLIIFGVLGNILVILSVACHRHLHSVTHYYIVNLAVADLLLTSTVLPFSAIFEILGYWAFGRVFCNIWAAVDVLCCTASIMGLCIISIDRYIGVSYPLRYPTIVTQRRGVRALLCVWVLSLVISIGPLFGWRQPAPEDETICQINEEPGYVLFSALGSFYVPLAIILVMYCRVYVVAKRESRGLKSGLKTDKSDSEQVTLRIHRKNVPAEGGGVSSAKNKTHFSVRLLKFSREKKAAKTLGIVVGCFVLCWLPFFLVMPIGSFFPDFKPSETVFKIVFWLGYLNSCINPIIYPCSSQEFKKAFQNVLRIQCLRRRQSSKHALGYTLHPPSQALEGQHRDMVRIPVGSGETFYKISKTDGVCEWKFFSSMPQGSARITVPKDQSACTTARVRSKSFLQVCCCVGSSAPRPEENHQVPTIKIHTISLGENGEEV

[3] = target: T2, 5-hydroxytryptamine receptor 2C (Rattus norvegicus, UniProt P08909)
T2 sequence (P08909 whole entry): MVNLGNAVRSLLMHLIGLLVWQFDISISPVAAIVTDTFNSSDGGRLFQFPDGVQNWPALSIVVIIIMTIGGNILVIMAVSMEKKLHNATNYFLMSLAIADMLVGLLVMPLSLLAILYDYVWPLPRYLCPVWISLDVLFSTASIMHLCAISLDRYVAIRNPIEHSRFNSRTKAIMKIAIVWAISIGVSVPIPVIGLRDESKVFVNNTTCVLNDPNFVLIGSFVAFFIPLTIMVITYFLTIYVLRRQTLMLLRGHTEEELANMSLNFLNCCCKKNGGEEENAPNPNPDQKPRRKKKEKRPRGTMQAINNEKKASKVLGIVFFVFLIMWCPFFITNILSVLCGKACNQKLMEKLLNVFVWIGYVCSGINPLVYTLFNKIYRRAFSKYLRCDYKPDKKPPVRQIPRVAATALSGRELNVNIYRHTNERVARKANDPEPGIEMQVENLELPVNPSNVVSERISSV
Description: Binding affinity towards 5-HT2C receptor from rat using [3H]mesulergine as radioligand

[4] = target: D(1A) dopamine receptor (Rattus norvegicus, UniProt P18901); assay: biochemical
Description: Binding affinity towards D1 CNS receptor of rat corpus striatum using [3H]SCH-23390 as radioligand

[5] = target: T3, Muscarinic acetylcholine receptor M1 (Homo sapiens, UniProt P11229); assay: Inhibition of binding of 1.0 nM [3H]pirenzepine to cloned human Muscarinic acetylcholine receptor M1 expressed in membranes from CHO-K1 cells; format: cell-based
T3 sequence (P11229 whole entry): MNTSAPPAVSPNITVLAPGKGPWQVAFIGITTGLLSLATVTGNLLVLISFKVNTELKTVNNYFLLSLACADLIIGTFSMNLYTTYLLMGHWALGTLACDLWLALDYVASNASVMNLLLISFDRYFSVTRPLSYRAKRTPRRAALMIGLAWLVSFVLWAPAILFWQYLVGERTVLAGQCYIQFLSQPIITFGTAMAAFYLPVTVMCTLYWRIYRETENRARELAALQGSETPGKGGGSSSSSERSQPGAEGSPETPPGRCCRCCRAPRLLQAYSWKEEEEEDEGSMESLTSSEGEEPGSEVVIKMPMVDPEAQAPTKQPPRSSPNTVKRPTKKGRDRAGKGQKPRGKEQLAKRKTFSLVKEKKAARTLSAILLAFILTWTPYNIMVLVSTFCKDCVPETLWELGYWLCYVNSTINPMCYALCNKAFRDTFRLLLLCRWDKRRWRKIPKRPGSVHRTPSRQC

[6] = target: 5-hydroxytryptamine receptor 2A (Rattus norvegicus, UniProt P14842); assay: biochemical
Description: Binding affinity towards 5-hydroxytryptamine 2A receptor from rat frontal cortex using [3H]ketanserin as radioligand

[7] = target: T4, D(4) dopamine receptor (Homo sapiens, UniProt P21917); assay: Binding affinity towards human D4.2 receptor
T4 sequence (P21917 whole entry): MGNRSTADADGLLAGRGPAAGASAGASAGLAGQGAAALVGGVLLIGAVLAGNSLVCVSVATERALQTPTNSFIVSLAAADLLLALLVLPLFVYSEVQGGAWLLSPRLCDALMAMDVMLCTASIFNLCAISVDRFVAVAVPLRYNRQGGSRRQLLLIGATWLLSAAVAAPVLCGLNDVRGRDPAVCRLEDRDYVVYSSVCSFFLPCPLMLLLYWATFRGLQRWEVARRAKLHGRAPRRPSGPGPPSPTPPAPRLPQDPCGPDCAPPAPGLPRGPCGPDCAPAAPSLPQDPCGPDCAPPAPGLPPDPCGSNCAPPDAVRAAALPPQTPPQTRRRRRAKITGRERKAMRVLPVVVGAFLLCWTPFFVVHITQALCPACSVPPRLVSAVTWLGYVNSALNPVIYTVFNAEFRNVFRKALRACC

[8] = tested on: Mus musculus; assay: Inhibition of apomorphine induced climbing affects in mice by administering the compound perorally in mice; format: functional; conditions: Mus musculus, po; read-out: ED50
[9] = tested on: Mus musculus; assay: Inhibition of apomorphine induced climbing affects in mice by administering the compound subcutaneously in mice; format: functional; conditions: sc
[10] = tested on: Rattus norvegicus; assay: Compound is measured for inhibition of catalepsy in rat by peroral administration of compound; format: functional; conditions: po
[11] = tested on: Rattus norvegicus; assay: Inhibition of catalepsy in rat by subcutaneous administration of compound; format: functional; conditions: sc
[12] = Therapeutic ratio by Peroral dose of administration (quotient ED50 catalepsy/ED50 climbing); format: ADME, organism-based; conditions: in vivo, po; read-out: Therapeutic ratio
[13] = Delta ED50 value by Subcutaneous administration (ED50 catalepsy-ED50 Climbing); format: functional
[14] = Delta ED50 value by peroral administration (ED50 catalepsy-ED50 Climbing); format: functional
[15] = target: D(3) dopamine receptor (Homo sapiens, UniProt P35462)
Description: Binding affinity towards human Dopamine receptor D3

[16] = in vivo; conditions: sc
Description: Therapeutic ratio by Subcutaneous dose of administration (quotient ED50 catalepsy/ED50 climbing)

[17] = tested on: Mus musculus; assay: Compound is measured for inhibition of apomorphine induced climbing affects in mice by administering the compound subcutaneously (sc) in mice; format: functional
[18] = Antipsychotic activity was determined from subcutaneous administration of compound in mice (ED50 catalepsy-ED50 Climbing); format: functional

Chain of D(1A) dopamine receptor (P18901 whole entry): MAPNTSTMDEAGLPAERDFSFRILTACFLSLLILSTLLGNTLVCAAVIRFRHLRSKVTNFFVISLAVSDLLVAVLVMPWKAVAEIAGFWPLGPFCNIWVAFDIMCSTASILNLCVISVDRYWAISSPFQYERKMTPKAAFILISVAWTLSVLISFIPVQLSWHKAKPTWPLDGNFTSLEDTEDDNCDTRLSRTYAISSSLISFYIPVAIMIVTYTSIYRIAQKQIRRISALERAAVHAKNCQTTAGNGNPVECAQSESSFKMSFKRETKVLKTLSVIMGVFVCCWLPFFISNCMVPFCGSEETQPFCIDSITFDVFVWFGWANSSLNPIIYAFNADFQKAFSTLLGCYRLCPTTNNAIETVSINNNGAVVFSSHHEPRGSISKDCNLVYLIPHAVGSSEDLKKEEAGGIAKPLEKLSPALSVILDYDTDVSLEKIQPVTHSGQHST
Chain of 5-hydroxytryptamine receptor 2A (P14842 whole entry): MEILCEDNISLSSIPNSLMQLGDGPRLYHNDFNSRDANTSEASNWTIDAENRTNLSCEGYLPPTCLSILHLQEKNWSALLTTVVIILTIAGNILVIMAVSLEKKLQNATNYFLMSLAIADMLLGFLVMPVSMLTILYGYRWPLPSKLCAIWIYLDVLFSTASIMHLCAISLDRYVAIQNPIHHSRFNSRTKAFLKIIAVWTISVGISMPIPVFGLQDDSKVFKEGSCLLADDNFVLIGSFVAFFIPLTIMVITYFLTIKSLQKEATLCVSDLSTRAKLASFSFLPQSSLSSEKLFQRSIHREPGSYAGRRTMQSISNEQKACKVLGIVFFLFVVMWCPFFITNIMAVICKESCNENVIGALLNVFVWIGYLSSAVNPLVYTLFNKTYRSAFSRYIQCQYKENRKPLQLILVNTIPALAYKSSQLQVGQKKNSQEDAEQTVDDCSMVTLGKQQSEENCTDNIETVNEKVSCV
Chain of D(3) dopamine receptor (P35462 whole entry): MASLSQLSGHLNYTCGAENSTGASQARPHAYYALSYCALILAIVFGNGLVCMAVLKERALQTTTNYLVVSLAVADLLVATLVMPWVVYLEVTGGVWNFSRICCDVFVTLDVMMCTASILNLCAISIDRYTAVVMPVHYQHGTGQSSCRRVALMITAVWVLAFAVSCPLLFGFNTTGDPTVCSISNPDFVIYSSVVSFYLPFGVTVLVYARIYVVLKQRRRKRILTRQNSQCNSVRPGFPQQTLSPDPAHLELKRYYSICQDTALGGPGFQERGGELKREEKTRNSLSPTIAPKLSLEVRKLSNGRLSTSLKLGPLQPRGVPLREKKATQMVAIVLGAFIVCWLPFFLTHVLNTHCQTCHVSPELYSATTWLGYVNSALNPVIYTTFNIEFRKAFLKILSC

| SMILES | logP [1] | IC50 [2] [nM] | IC50 [3] [nM] | IC50 [4] [nM] | IC50 [5] [nM] | IC50 [6] [nM] | IC50 [7] [nM] | ED50 [9] [mg/kg] | ED50 [11] [mg/kg] | Delta ED50 [13] [mg/kg] | IC50 [15] [nM] | selectivity ratio [16] | also measured |
| --- | --- | --- | --- | --- | --- | --- | --- | --- | --- | --- | --- | --- | --- |
| CN1CCN(C2=Nc3cc(OS(=O)(=O)C(F)(F)F)ccc3Nc3ccccc32)CC1 | 3.58 |  |  |  |  |  |  |  |  |  |  |  |  |
| CN1CCN(C2=Nc3cc(O)ccc3Nc3ccccc32)CC1 | 2.21 |  |  |  |  |  |  |  |  |  |  |  |  |
| CN1CCN(C2=Nc3ccccc3Nc3ccc(OS(C)(=O)=O)cc32)CC1 | 1.8 | 160 | 1200 | 2100 |  |  |  |  |  |  |  |  |  |
| CN1CCN(C2=Nc3cc(OS(C)(=O)=O)ccc3Nc3ccccc32)CC1 | 1.8 | 8700 | 7400 | 22000 | 38 | 4900 |  |  |  |  |  |  |  |
| CN1CCN(C2=Nc3ccccc3Nc3ccc(OS(=O)(=O)C(F)(F)F)cc32)CC1 | 3.58 |  |  |  | > 1000 | 43 | 120 | 2.1 | > 44 | >41.9 | 53 | > 20 | ED50 [8]: 11 mg/kg; ED50 [10]: > 100 mg/kg; selectivity ratio [12]: > 9; Delta ED50 [14]: >89 mg/kg |
| CN1CCN(C2=Nc3ccccc3Sc3ccc(Cl)cc32)CC1 [CLOTHIAPINE] |  |  |  |  |  |  |  |  | 0.72 |  |  | 2.7 | ED50 [17]: 0.27 mg/kg; Delta ED50 [18]: 0.45 mg/kg |
| CN1CCN(C2=Nc3ccccc3Nc3ccc(Cl)cc32)CC1 [ISOCLOZAPINE] | 3.48 |  |  |  |  |  | 110 | 1.7 | 2 | 0.3 | 120 |  |  |
| CN1CCN(C2=Nc3ccccc3Sc3ccc(OS(=O)(=O)C(F)(F)F)cc32)CC1 | 4.04 | 3.6 | 280 | 100 | 460 | 110 | 570 | 2.6 | 30 | 27.4 | 8 | 11.5 |  |
